# Source: US20120214862A1, “MODULATION OF FACTOR 7 EXPRESSION” (ISIS Pharmaceuticals, Inc., priority 2009, published 2012)
# In the oligonucleotide strings, read from the 5' end, every base follows the letter of its sugar. An asterisk marks phosphorothioate; unmarked linkages are phosphodiester. Other units and linkages are bracketed, terminal groups are in braces. A string of capitals states the bases alone. e = 2'-O-(2-methoxyethyl) (MOE); [5mC] = 5-methylcytosine; d = 2'-deoxy (DNA)
# System: human Factor 7 mRNA
# Assay: Antisense inhibition of human Factor 7 mRNA in HepB3 cells, lipofectin, 50 nM, real-time RT-PCR
# Type: cell-based
# Conditions: HepB3 cells
# Outline: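 Seeding density was 4,000 cells per well. Following roughly 24 hours of oligonucleotide treatment, RNA was extracted and Factor 7 message quantified using the RTS 2927 primer probe set. Levels were corrected for RIBOGREEN® total RNA and expressed against untreated controls.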
# [1] = lipofectin, 50 nM antisense oligonucleotide, approximately 24 hours, primer probe set RTS 2927, relative to untreated control
# [2] = gapmers targeted to nucleobases 11830 to 11869 of SEQ ID NO: 1 (Table 9)
Substance,% Inhibition of human Factor 7 mRNA levels [1],% Inhibition of human Factor 7 mRNA levels [2],other results
416540 (antisense eG*eG*eA*e[5mC]*eT*dG*dG*dT*dG*dT*d[5mC]*dA*dT*d[5mC]*dT*eG*eG*eG*eA*e[5mC]) [compound 416540],38%,,
416541 (antisense e[5mC]*e[5mC]*eA*e[5mC]*e[5mC]*d[5mC]*dT*dT*dG*dG*dT*dG*d[5mC]*d[5mC]*d[5mC]*eA*eG*eA*eT*e[5mC]) [compound 416541],53%,,
416542 (antisense e[5mC]*eA*eG*eG*eG*dT*dG*d[5mC]*d[5mC]*d[5mC]*dA*dT*d[5mC]*d[5mC]*dT*eA*eG*eT*e[5mC]*eA) [compound 416542],56%,,
416543 (antisense eT*e[5mC]*e[5mC]*eT*eG*d[5mC]*dG*dA*dG*dT*dG*dG*dG*dA*dG*eT*eT*eG*eG*eA) [compound 416543],0%,,
416544 (antisense eA*eT*e[5mC]*e[5mC]*e[5mC]*dA*dT*dT*dT*dT*d[5mC]*d[5mC]*d[5mC]*dA*dG*eG*eA*eG*e[5mC]*e[5mC]) [compound 416544],58%,,
416545 (antisense eA*eG*eA*eA*eA*d[5mC]*dA*dT*d[5mC]*d[5mC]*d[5mC]*dA*dT*dT*dT*eT*e[5mC]*e[5mC]*e[5mC]*eA) [compound 416545],8%,,
416546 (antisense e[5mC]*e[5mC]*eA*eG*eG*d[5mC]*dT*dG*dG*dT*dT*dT*dG*dG*dA*eG*eA*eA*eA*e[5mC]) [compound 416546],21%,,
416547 (antisense eA*eT*eG*eA*eA*dA*dT*dT*d[5mC]*dT*dA*d[5mC]*d[5mC]*dT*dA*eA*eA*eG*eA*eT) [compound 416547],0%,,
416548 (antisense eA*eG*eG*eT*eG*dA*dA*dT*dG*dA*dA*dA*dT*dT*d[5mC]*eT*eA*e[5mC]*e[5mC]*eT) [compound 416548],29%,,
416550 (antisense eT*eG*eG*e[5mC]*eT*dG*dG*d[5mC]*dT*dG*dA*dG*dG*dA*dG*eA*e[5mC]*eA*eA*eT) [compound 416550],55%,,
416551 (antisense e[5mC]*eA*eG*eA*eA*dA*d[5mC]*dA*d[5mC]*d[5mC]*d[5mC]*dA*dT*d[5mC]*d[5mC]*eT*e[5mC]*eT*eG*eA) [compound 416551],19%,,
416552 (antisense eT*e[5mC]*eT*eG*e[5mC]*dA*d[5mC]*dA*dG*dG*dG*dT*dA*dG*dA*e[5mC]*e[5mC]*e[5mC]*eT*e[5mC]) [compound 416552],46%,,
416553 (antisense eG*eG*eT*eT*e[5mC]*dT*d[5mC]*dT*dG*d[5mC]*dA*d[5mC]*dA*dG*dG*eG*eT*eA*eG*eA) [compound 416553],56%,,
416554 (antisense eA*eA*eA*eG*eA*dT*d[5mC]*d[5mC]*d[5mC]*dA*d[5mC]*d[5mC]*dT*d[5mC]*dA*eA*eA*eG*eA*eG) [compound 416554],7%,,
416555 (antisense eA*eA*eA*eG*eA*dT*d[5mC]*dA*dG*dG*d[5mC]*dA*dA*dA*dG*eA*eT*e[5mC]*e[5mC]*e[5mC]) [compound 416555],6%,,
416556 (antisense eA*eT*eA*eG*e[5mC]*dT*dT*dT*dG*dA*dT*d[5mC]*d[5mC]*dA*dA*eT*eG*e[5mC]*eT*e[5mC]) [compound 416556],53%,,
416557 (antisense eT*e[5mC]*e[5mC]*e[5mC]*eA*dG*dG*d[5mC]*dA*dA*dA*dG*d[5mC]*dT*dG*e[5mC]*eT*e[5mC]*eA*eG) [compound 416557],56%,,
416558 (antisense eT*eG*eA*e[5mC]*eA*dG*d[5mC]*dA*d[5mC]*dG*dA*dA*dG*d[5mC]*d[5mC]*e[5mC]*eA*eG*eA*eG) [compound 416558],19%,,
416559 (antisense eG*e[5mC]*e[5mC]*eA*eT*dT*dT*d[5mC]*dT*dA*dG*dG*dT*d[5mC]*dT*eG*e[5mC]*eA*eG*eG) [compound 416559],25%,,
416560 (antisense eT*eA*eA*eA*eA*d[5mC]*dT*dT*dT*dA*dT*dT*dT*dA*d[5mC]*eA*eA*eG*eA*eG) [compound 416560],0%,,
416561 (antisense eG*eG*eT*eG*eT*dG*dT*dT*d[5mC]*d[5mC]*d[5mC]*dA*dT*dA*dA*eA*eA*e[5mC]*eT*eT) [compound 416561],16%,,
416562 (antisense eA*eA*eA*eG*e[5mC]*dA*dG*dA*dG*d[5mC]*d[5mC]*dA*dG*d[5mC]*dT*e[5mC]*eT*eG*eA*e[5mC]) [compound 416562],12%,,
416563 (antisense eG*e[5mC]*e[5mC]*eT*eG*d[5mC]*dA*dT*dT*dT*d[5mC]*d[5mC]*d[5mC]*dA*dT*eT*eG*eG*e[5mC]*eA) [compound 416563],0%,,

Substance,% Inhibition of human Factor 7 mRNA levels [1],% Inhibition of human Factor 7 mRNA levels [2],other results
416564 (antisense eG*e[5mC]*e[5mC]*eA*e[5mC]*dT*d[5mC]*dA*d[5mC]*dA*dG*dA*dA*dA*dG*e[5mC]*eT*eG*eG*eA) [compound 416564],0%,,
416565 (antisense e[5mC]*eA*eG*eG*eA*dT*dG*d[5mC]*dT*d[5mC]*dA*dT*dG*dG*d[5mC]*eA*eG*eA*e[5mC]*eA) [compound 416565],0%,,
416566 (antisense eG*eT*eT*eT*eG*dT*dA*dT*dG*dG*dA*dG*dA*dG*dA*e[5mC]*e[5mC]*eA*eA*eT) [compound 416566],0%,,
416567 (antisense eT*eG*eG*eT*eG*dG*d[5mC]*dA*d[5mC]*d[5mC]*dA*dG*dA*dT*dG*eT*e[5mC]*eT*eG*eA) [compound 416567],2%,,
416568 (antisense e[5mC]*eA*eT*eT*eG*dT*dG*d[5mC]*d[5mC]*dT*dG*dG*d[5mC]*dA*d[5mC]*eA*e[5mC]*eA*eG*eG) [compound 416568],14%,,
416569 (antisense eG*e[5mC]*e[5mC]*eT*eG*dG*dT*dG*dT*dG*d[5mC]*dA*d[5mC]*dA*d[5mC]*eA*eT*eT*eG*eT) [compound 416569],12%,,
422085 (antisense eG*e[5mC]*eA*eT*eG*dG*dT*dG*dA*dT*dG*d[5mC]*dT*dT*d[5mC]*eT*eG*eA*eA*eT) [compound 422085],,,% Inhibition of human Factor 7 mRNA levels (gapmers targeted to nucleobases 15188 to 15211 of SEQ ID NO: 1 (Table 13)): 70%
422088 (antisense eT*e[5mC]*eA*eG*eG*dG*d[5mC]*dT*dG*dG*dT*dT*dT*dT*dG*eG*eA*eG*eG*eA) [compound 422088],,8%,
422089 (antisense eG*eT*e[5mC]*eA*eG*dG*dG*d[5mC]*dT*dG*dG*dT*dT*dT*dT*eG*eG*eA*eG*eG) [compound 422089],,22%,
422090 (antisense eG*eG*eT*e[5mC]*eA*dG*dG*dG*d[5mC]*dT*dG*dG*dT*dT*dT*eT*eG*eG*eA*eG) [compound 422090],,42%,
422091 (antisense eT*eG*eG*eT*e[5mC]*dA*dG*dG*dG*d[5mC]*dT*dG*dG*dT*dT*eT*eT*eG*eG*eA) [compound 422091],,42%,
422092 (antisense eA*eT*eG*eG*eT*d[5mC]*dA*dG*dG*dG*d[5mC]*dT*dG*dG*dT*eT*eT*eT*eG*eG) [compound 422092],,36%,
422093 (antisense eA*eA*eT*eG*eG*dT*d[5mC]*dA*dG*dG*dG*d[5mC]*dT*dG*dG*eT*eT*eT*eT*eG) [compound 422093],,42%,
422094 (antisense e[5mC]*eA*eA*eT*eG*dG*dT*d[5mC]*dA*dG*dG*dG*d[5mC]*dT*dG*eG*eT*eT*eT*eT) [compound 422094],,48%,
422095 (antisense eA*e[5mC]*eA*eA*eT*dG*dG*dT*d[5mC]*dA*dG*dG*dG*d[5mC]*dT*eG*eG*eT*eT*eT) [compound 422095],,60%,
422097 (antisense eG*eA*eG*eA*e[5mC]*dA*dA*dT*dG*dG*dT*d[5mC]*dA*dG*dG*eG*e[5mC]*eT*eG*eG) [compound 422097],,59%,
422098 (antisense eG*eG*eA*eG*eA*d[5mC]*dA*dA*dT*dG*dG*dT*d[5mC]*dA*dG*eG*eG*e[5mC]*eT*eG) [compound 422098],,53%,
422099 (antisense eA*eG*eG*eA*eG*dA*d[5mC]*dA*dA*dT*dG*dG*dT*d[5mC]*dA*eG*eG*eG*e[5mC]*eT) [compound 422099],,48%,
422100 (antisense eG*eA*eG*eG*eA*dG*dA*d[5mC]*dA*dA*dT*dG*dG*dT*d[5mC]*eA*eG*eG*eG*e[5mC]) [compound 422100],,59%,
422101 (antisense eT*eG*eA*eG*eG*dA*dG*dA*d[5mC]*dA*dA*dT*dG*dG*dT*e[5mC]*eA*eG*eG*eG) [compound 422101],,42%,
422102 (antisense e[5mC]*eT*eG*eA*eG*dG*dA*dG*dA*d[5mC]*dA*dA*dT*dG*dG*eT*e[5mC]*eA*eG*eG) [compound 422102],,62%,
422103 (antisense eG*e[5mC]*eT*eG*eA*dG*dG*dA*dG*dA*d[5mC]*dA*dA*dT*dG*eG*eT*e[5mC]*eA*eG) [compound 422103],,38%,
422104 (antisense eG*eG*e[5mC]*eT*eG*dA*dG*dG*dA*dG*dA*d[5mC]*dA*dA*dT*eG*eG*eT*e[5mC]*eA) [compound 422104],,59%,
